Experimental data as given in US10844019B2, “1-phenyl-3-carbamoyl urea compound, and use thereof” (Sumitomo Chemical Company, Limited, priority 2016, dated 2020).

System: cucumber phytophthora blight fungi (Phytophthora capsici)
Test: Test for controlling cucumber phytophthora blight fungi (growth in PDB medium, absorbance at 600 nm)
Type: cell-based
Settings: 4.5 mg in 100 μL dimethyl sulfoxide, 1 μL of it in 150 μL PDB medium with zoospores, 27° C., three days, Efficacy=100×(X−Y)/X
Procedure: Four point five (4.5) milligrams of the present compound was diluted with 100 μL of dimethyl sulfoxide. One (1) μL portion of the diluted liquid was dispensed into a titer plate (96 wells), and thereto was then dispensed 150 μL of a potato dextrose broth medium (PDB medium) containing zoospores of cucumber phytophthora blight fungi (Phytophthora capsici). This plate was cultured at 27° C. for three days, thereby allowing the cucumber phytophthora blight fungi to undergo proliferation, and the absorbance at 600 nm of each well of the titer plate was then measured to determine a degree of growth of the cucumber phytophthora blight fungi. The efficacy was calculated from the determined degree of growth by the below-mentioned “Equation 1”. As a result, the efficacy of the Present compound was 80% or more. Efficacy=100×(X−Y)/X “Equation 1” where X: Degree of fungal growth in non-treated area Y: Degree of fungal growth in treated area
In the test example, a non-treated area means an area in which a test was conducted in the same manner, except that dimethyl sulfoxide was dispensed in place of the present compound diluted with dimethyl sulfoxide.

SMILES: CCOC(=O)COc1ncccc1Oc1cc(NC(C)=O)c(F)cc1Cl [N-[4-chloro-2-fluoro-5-{2-(ethoxycarbonyl)methoxy-3-pyridyloxy}phenyl]acetamide]
- Efficacy: less than 50%

SMILES: CCOC(=O)COc1ncccc1Oc1cc(NC(=O)NC(N)=O)c(F)cc1Cl [Present compound]
- Efficacy: ≥ 80%
